Data: PubChem BioAssay (NCI)
“And” between values parts separate entries of the source, which are not always exact repeats. Identical values can stand only once.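 Growth conditions: 96-well plates. Treatment: test compound, 48 hours, 5 concentrations. Analysis: linear interpolation between bracketing concentrations; unreached endpoints set to highest concentration. GI50 marks 50% less growth. TGI: concentration producing complete growth inhibition.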

Columns and labels:
Assay in all cases: NCI tumour cell line growth inhibition, 48 h
[1] = test system: ACHN renal
[2] = test system: HCT-116 colon
[3] = test system: HOP-62 NSCLC
[4] = test system: M14 melanoma
[5] = test system: MDA-MB-435
[6] = test system: NCI-H226 lung
[7] = test system: NCI-H23 lung
[8] = test system: OVCAR-3 ovarian
[9] = test system: OVCAR-5 ovarian
[10] = test system: SK-MEL-5 melanoma

Structure (SMILES): COc1cc2c3c(n(CCCOC(=O)C(F)(F)F)c(=O)c2cc1OC)-c1cc2c(cc1C3=O)OCO2
- GI50 [1]: < 0.01 µM
- GI50 [2]: < 0.0158 µM
- GI50 [3]: < 0.01 µM
- TGI [3]: < 0.0329 µM
- GI50 [4]: < 0.0123 µM
- GI50 [5]: 0.0232 µM
- TGI [5]: 3.69 µM
- GI50 [6]: < 0.0151 µM
- TGI [6]: 0.161 µM
- GI50 [7]: < 0.0158 µM
- TGI [7]: < 0.045 µM
- GI50 [8]: 0.0425 µM
- TGI [8]: 0.306 µM
- GI50 [9]: 0.14 µM
- TGI [9]: 43.8 µM
- GI50 [10]: 0.402 µM
- TGI [10]: 1.24 µM

Structure (SMILES): Cc1[nH]c(/C=C2\C(=O)Nc3ccccc32)c(C)c1CCC(=O)O
- TGI [1]: > 100 µM
- GI50 [2]: 25.9 µM
- TGI [2]: > 100 µM
- GI50 [3]: 23.7 µM
- TGI [3]: > 100 µM
- GI50 [4]: 17 µM
- TGI [4]: 49.3 µM and 58.8 µM
- GI50 [5]: 23.5 µM
- TGI [5]: 84.2 µM and > 100 µM
- GI50 [6]: 15.2 µM
- TGI [6]: 42.6 µM
- GI50 [7]: 20.3 µM
- TGI [7]: 73.4 µM and > 100 µM
- GI50 [8]: 28.8 µM
- TGI [8]: > 100 µM and 73.3 µM
- GI50 [9]: 21.5 µM
- TGI [9]: 81.8 µM and 97.4 µM
- GI50 [10]: 19.8 µM
- TGI [10]: 48.7 µM and 81.5 µM

Structure (SMILES): CN1C(=O)/C(=C/c2c(Cl)n(C)c3ccccc23)c2ccccc21
- GI50 [1]: 4.85 µM and 1.7 µM
- TGI [1]: 3.11 µM
- TGI [2]: 1.39 µM
- GI50 [3]: 2.99 µM
- TGI [3]: 8.96 µM
- GI50 [4]: 2.81 µM and 1.32 µM
- TGI [4]: 2.8 µM
- GI50 [5]: 1.89 µM and 1.69 µM
- TGI [5]: 4 µM and 3.13 µM
- GI50 [6]: 5.05 µM
- GI50 [7]: 1.92 µM and 1.56 µM
- TGI [7]: 5.96 µM and 2.94 µM
- GI50 [8]: 2.05 µM and 1.45 µM
- TGI [8]: 5.17 µM and 2.76 µM
- GI50 [9]: 3.61 µM and 1.85 µM
- TGI [9]: 3.25 µM
- GI50 [10]: 2.1 µM and 1.96 µM
- TGI [10]: 6.51 µM and 3.46 µM

Structure (SMILES): CCCOc1ccc2sc(NC(=O)OC)nc2c1
- GI50 [1]: > 25.1 µM
- TGI [1]: > 100 µM
- GI50 [2]: 1.06 µM
- TGI [2]: > 100 µM
- GI50 [3]: 4.9 µM
- TGI [3]: > 100 µM
- GI50 [4]: 1.26 µM
- TGI [4]: > 100 µM
- GI50 [5]: 0.215 µM
- TGI [5]: 0.587 µM
- GI50 [6]: > 100 µM
- TGI [6]: > 100 µM
- GI50 [7]: 5.77 µM
- TGI [7]: > 100 µM
- GI50 [8]: 2.27 µM
- TGI [8]: 19.9 µM
- GI50 [9]: > 100 µM
- TGI [9]: > 100 µM
- GI50 [10]: 1.12 µM
- TGI [10]: > 100 µM

Structure (SMILES): CSc1ccc2c(c1)C(=O)c1c-2n(CCCBr)c(=O)c2cc([N+](=O)[O-])ccc12
- GI50 [1]: 1.61 µM
- TGI [1]: 8.4 µM
- GI50 [2]: 2.22 µM
- TGI [2]: > 100 µM
- GI50 [3]: 1.05 µM
- TGI [3]: 19.6 µM
- GI50 [4]: 3.38 µM
- TGI [4]: > 100 µM
- GI50 [5]: 31 µM
- TGI [5]: > 100 µM
- GI50 [6]: 33.6 µM
- TGI [6]: > 100 µM
- GI50 [7]: 8.03 µM
- TGI [7]: > 100 µM
- GI50 [8]: > 100 µM
- TGI [8]: > 100 µM
- GI50 [9]: > 100 µM
- TGI [9]: > 100 µM
- GI50 [10]: 3 µM
- TGI [10]: 25.8 µM

Structure (SMILES): Cn1cc(C2=C(c3cccc(Br)c3)C(=O)NC2=O)c2ccccc21
- GI50 [1]: 14.5 µM
- TGI [1]: > 25 µM
- GI50 [2]: 7.62 µM
- TGI [2]: > 25 µM
- GI50 [3]: 18.3 µM
- TGI [3]: > 25 µM
- GI50 [4]: 17.1 µM
- TGI [4]: > 25 µM
- GI50 [5]: 5.82 µM
- TGI [5]: > 25 µM
- GI50 [6]: 10.4 µM
- TGI [6]: > 25 µM
- GI50 [7]: 12.5 µM
- TGI [7]: > 25 µM
- GI50 [8]: 9.51 µM
- TGI [8]: > 25 µM
- GI50 [9]: > 25 µM
- TGI [9]: > 25 µM
- GI50 [10]: 6.23 µM
- TGI [10]: 22.3 µM

Structure (SMILES): Cc1cc(C)c(/C=C2\C(=O)Nc3ccc(NC(=O)CCCCCCC(=O)NO)cc32)[nH]1
- GI50 [1]: 6.18 µM
- TGI [1]: > 100 µM
- GI50 [2]: 0.3 µM
- TGI [2]: 4.86 µM
- GI50 [3]: 0.485 µM
- TGI [3]: 9.83 µM
- GI50 [4]: 0.75 µM
- TGI [4]: > 100 µM
- GI50 [5]: 0.44 µM
- TGI [5]: > 100 µM
- GI50 [6]: > 100 µM
- TGI [6]: > 100 µM
- GI50 [7]: 3.79 µM
- TGI [7]: > 100 µM
- GI50 [8]: 0.882 µM
- TGI [8]: > 78.2 µM
- GI50 [9]: 1.09 µM
- TGI [9]: > 54.1 µM
- GI50 [10]: 0.335 µM
- TGI [10]: 14.7 µM

Structure (SMILES): COc1ccc(-n2c(C)cc(-c3ccccc3)c2C)cc1
- GI50 [1]: 2.82 µM
- TGI [1]: 33.3 µM
- GI50 [2]: 2.11 µM
- TGI [2]: 16.1 µM
- GI50 [3]: 6.68 µM
- TGI [3]: 67.8 µM
- GI50 [4]: 2.59 µM
- TGI [4]: 9.14 µM
- GI50 [5]: 1.56 µM
- TGI [5]: 5.58 µM
- GI50 [6]: 5.75 µM
- TGI [6]: 31.2 µM
- GI50 [7]: 2.16 µM
- TGI [7]: 16.2 µM
- GI50 [8]: 2.61 µM
- TGI [8]: 10.7 µM
- GI50 [9]: 2.48 µM
- TGI [9]: 14.6 µM
- GI50 [10]: 1.77 µM
- TGI [10]: 4.86 µM

Structure (SMILES): O=C(Nc1ccc(F)cc1)c1cc(S(=O)(=O)Nc2nc3ccccc3o2)c(SCc2ccccc2)cc1Cl
- GI50 [1]: 17.5 µM
- TGI [1]: 32.2 µM
- GI50 [2]: 17.9 µM
- TGI [2]: 31.7 µM
- GI50 [3]: 17.7 µM
- TGI [3]: 33.5 µM
- GI50 [4]: 16 µM
- TGI [4]: 30.8 µM
- GI50 [5]: 16.3 µM
- TGI [5]: 30.7 µM
- GI50 [6]: 12.1 µM
- TGI [6]: 28.4 µM
- GI50 [7]: 19.5 µM
- TGI [7]: 36.9 µM
- GI50 [8]: 14.8 µM
- TGI [8]: 28.1 µM
- GI50 [9]: 19.7 µM
- TGI [9]: 35.1 µM
- GI50 [10]: 17.9 µM
- TGI [10]: 31.9 µM

Structure (SMILES): O=C1NC(=O)/C(=C\c2ccccc2)C2=C1CCCC2
- GI50 [1]: 5.78 µM
- TGI [1]: 18.6 µM
- GI50 [2]: 3.38 µM
- TGI [2]: 11.1 µM
- GI50 [3]: 7.31 µM
- TGI [3]: 25.8 µM
- GI50 [4]: 3.72 µM
- TGI [4]: 12.8 µM
- GI50 [5]: 1.82 µM
- TGI [5]: 3.49 µM
- GI50 [6]: 10.8 µM
- TGI [6]: 23 µM
- GI50 [7]: 2.63 µM
- TGI [7]: 8.33 µM
- GI50 [8]: 2.71 µM
- TGI [8]: 8.17 µM
- GI50 [9]: 3.53 µM
- TGI [9]: 12 µM
- GI50 [10]: 1.81 µM
- TGI [10]: 3.52 µM

Structure (SMILES): OCCCNc1nccc(-c2c(-c3ccc(F)cc3)nn3cc(C(F)(F)F)ccc23)n1
- GI50 [1]: 9.23 µM
- TGI [1]: > 25 µM
- GI50 [2]: 11.7 µM
- TGI [2]: > 25 µM
- GI50 [3]: > 23.4 µM
- TGI [3]: > 25 µM
- GI50 [4]: 15.4 µM
- TGI [4]: > 25 µM
- GI50 [5]: 10.1 µM
- TGI [5]: > 25 µM
- GI50 [6]: 9.49 µM
- TGI [6]: > 25 µM
- GI50 [7]: > 25 µM
- TGI [7]: > 25 µM
- GI50 [8]: 15.1 µM
- TGI [8]: > 25 µM
- GI50 [9]: > 22.9 µM
- TGI [9]: > 25 µM
- GI50 [10]: 8.4 µM
- TGI [10]: > 25 µM

Structure (SMILES): CN(CCO)c1ccc(N2Cc3ccccc3OC3=C2C(=O)c2c(O)ccc(O)c2C3=O)cn1
- GI50 [1]: 0.0462 µM
- TGI [1]: 0.179 µM
- GI50 [2]: 0.0467 µM
- TGI [2]: 0.223 µM
- GI50 [3]: 0.508 µM
- TGI [3]: 1.79 µM
- GI50 [4]: 0.192 µM
- TGI [4]: 0.409 µM
- GI50 [5]: 0.215 µM
- TGI [5]: 0.478 µM
- GI50 [6]: 0.854 µM
- TGI [6]: 2.95 µM
- GI50 [7]: 0.263 µM
- TGI [7]: 0.834 µM
- GI50 [8]: 0.111 µM
- TGI [8]: 0.276 µM
- GI50 [9]: 0.325 µM
- TGI [9]: 0.997 µM
- GI50 [10]: 0.267 µM
- TGI [10]: 0.717 µM
